For one data set, the system named is tomato GAME25. Description: In vitro assay of recombinant tomato GAME25 (Sf9 microsomes, NAD+). It counts as biochemical, Solanum lycopersicum. The conditions noted are these: 100 μM substrate, NAD+ 150 μM, pH 7.4, 37° C., 4 hrs; LC-MS. On the procedure:
(§1) For enzyme assay experiments, an additional MS-MS analysis with a collision energy ramp from 20 to 50 eV was performed to identify the structures of the enzymatic reaction products. The solanid-4-en-3-one product was identified based on the comparison of its retention time and MS-MS spectrum to those measured for its corresponding standard. Another three products (tomatid-4-en-3-one, solasod-4-en-3-one and diosgen-4-en-3-one) were putatively assigned as follows: first, elemental composition based on accurate masses and the isotopic pattern was calculated using the MassLynx software. Then the MS-MS fragmentation pattern was analyzed, and the fragments were assigned applying the fragmentation rules for steroid-based compounds.
(§2) Each expression vector construct was co-transfected with the ProGreen GFP linearized baculovirus DNA (AB vector) to generate the recombinant viruses in Spodoptera frugiperda (Sf9) insect cells. Infection efficiency was monitored by fluorescence of recombinant GFP viruses infected cells. Sf9 cells were grown in ESF921, protein free culture medium (Expression Systems). Three days post-infection cells were collected and washed twice in PBS. Microsomal fractions were isolated by suspending the cell pellet in 20 mM potassium phosphate buffer pH 7.25, 20% (v/v) glycerol, 1 mM EDTA and 1 mM DTT. The resuspended cells were sonicated, and the cell debris was removed by centrifugation at 10,000×g for 15 min. The supernatant was further centrifuged at 100,000×g for 60 min. The pellet containing the microsomal fractions was homogenized in lysis buffer. GAME25 was expressed with a myc-tag at the C-terminus. The isolated microsomal fractions were analyzed by SDS-PAGE and immune-blot with c-myc antibodies (A2S Technologies Ltd.).
(§3) The steroidal alkaloid aglycones dehydrotomatidine, solanidine and solasodine as well as their glycosylated forms (i.e. SGAs) α-tomatine, α-solanine, α-chaconine and α-solamargine were used as substrates for GAME25 enzyme assays. In vitro assays for the tomato and potato recombinant GAME25 enzymes were performed as follows: Briefly, microsomal fractions of Sf9 cells expressing tomato or potato GAME25 proteins (0.2 mg total protein was used per reaction) were separately incubated in sodium phosphate buffer (pH 7.4) with 100 μM of each individual substrate (details are mentioned above), DTT (5 mM) and NAD^+ (150 μM) at 37° C. for 4 hrs. The reactions were stopped by addition of 300 μl of 80% methanol and 0.1% formic acid, followed by brief vortex and sonication for 15 min. Finally, the extracts were centrifuged for 15 min at 14,000×g, filtered through 0.22 μm filters, and analyzed by LC-MS (see Plant extracts preparation and targeted profiling of steroidal metabolites section above). Sf9 cells (without the baculovirus vector) microsomes were used in control enzyme reactions.

The next data set relates to potato GAME25. As to the kind of experiment: In vitro assay of recombinant potato GAME25 (Sf9 microsomes, NAD+). It counts as biochemical, Solanum tuberosum. As to conditions: 100 μM substrate, NAD+ 150 μM, pH 7.4, 37° C., 4 hrs; LC-MS. On the procedure: as §1, §2, §3
The test system of the next data set is SlGAME31. Description: Enzymatic activity assay of recombinant SlGAME31 (hydroxylation of SA/SGAs). In kind it is biochemical, Solanum lycopersicum. The procedure:
GAME31 was amplified from cDNA (SEQ ID NO: 17) and cloned into pET28 vector by restriction free (RF) cloning as described previously (Unger et al., 2010, J Struct Biol. 172:34-44).
The resulting plasmids were verified by sequencing and transformed to E. coli BL21 DE3. For isolation of the GAME31-His tagged enzymes, fresh overnight cultures were diluted 1:100 in 1000 ml of LB medium (Formedium) with 50 μg/ml kanamycin and incubated at 37° C. and 250 rpm until an A600 nm of 0.5 was reached. Subsequently, for induction of expression of the recombinant proteins, IPTG was added to a final concentration of […] and the incubation was continued overnight at 16° C. and 250 rpm. Then cells were harvested by centrifugation at 10,000×g and bacteria were lysed by sonication in a buffer (pH 7.4) containing 0.02 M NaH2PO4 0.02 M, 0.5 M NaCl, and SIGMAFAST protease inhibitor tablets (Sigma-Aldrich) and benzonase nuclease (Sigma-Aldrich) according to manufacturer's instructions. Lysed cultures were centrifuged, and the soluble fraction was purified by nickel affinity chromatography which was operated with an AKTA liquid chromatography system (AKTA avant, GE Healthcare) according to the manufacturer's instructions. Proteins were stored at −80° C. until further analysis.
All the SA/SGAs substrates were prepared at a concentration of 1 mg/ml, dissolved in methanol, except dehydrotomatine that was prepared in DMSO. The enzymatic activity was performed according to Kawai et al. (2014) Evolution and diversity of the 2-oxoglutarate-dependent dioxygenase superfamily in plants. Plant J. 78: 328-43. Briefly, the standard full reaction (100 μL) consisted of 10 mM L-ascorbic acid, 10 mM α-ketoglutaric acid, 500 μM FeSO4, 20 μM substrate, 50 mM potassium phosphate buffer (pH 7.5) and purified enzyme. All the components, except the enzyme, were pre-incubated for 10 min at 30° C., after which the reaction was started by addition of the enzyme. After incubation at 30° C. for 1 h, the reaction was stopped by freezing in liquid nitrogen Finally, the reaction was mixed with 300 μL methanol, extracted and analyzed by UPLC-qTOF-MS as described above.

The next data set relates to animals and humans. The conditions noted are these: studies in animal models; cited from earlier work.

Consider `C[C@H]1CC[C@]2(NC1)O[C@H]1C[C@H]3[C@@H]4CC[C@H]5C[C@@H](O[C@@H]6O[C@H](CO)[C@H](O[C@@H]7O[C@H](CO)[C@@H](O)[C@H](O[C@@H]8OC[C@@H](O)[C@H](O)[C@H]8O)[C@H]7O[C@@H]7O[C@H](CO)[C@@H](O)[C@H](O)[C@H]7O)[C@H](O)[C@H]6O)CC[C@]5(C)[C@H]4CC[C@]3(C)[C@H]1[C@@H]2C` [α-tomatine], for which the “activity with substrate / product formed” value in the data set with tomato GAME25 and in the data set on potato GAME25 was “no activity” in each case. The hydroxylation of substrate entry in the data set on SlGAME31 (absence of iron) was “minor amounts of hydroxytomatine were still generated”; with SlGAME31 (full reaction: ketoglutaric acid, ascorbic acid, FeSO4, 20 μM substrate, 30° C., 1 h), “forming hydroxytomatine”; in the data set on SlGAME31 (removal of either cofactor (ketoglutaric or ascorbic acid)) it was “lack of activity”. The “toxicity to animals and humans compared to SGAs possessing the C-5,6 double bond (e.g. α-chaconine and α-solanine)” value in the data set on animals and humans is recorded as “much less toxic”.

The values above are taken from patent US12129475B2, “Glycoalkaloid metabolism enyzymes (GAMES) and uses thereof” (priority 2017, dated 2024).
